# “And” between values parts separate entries of the source, which are not always exact repeats. Identical values can stand only once. Like-named read-outs stand apart in the source and are kept apart here.
# Columns and labels:
# [1] = system: DLD-1; assay: MTT cytotoxicity (IC50), DLD-1; type: cell-based; details: Homo sapiens
# Experimental: (§1) Compound 17932 was tested in four of these cell lines, while the remaining compounds were tested in all of these cell lines. All cell lines were maintained in RPMI-1640 tissue culture medium (TCM, supplemented with antibiotics and 10% fetal bovine serum) and cultured at 37° C. in humidified air containing 5% CO2. To assess the antiproliferative effects of the test compounds, 172 μL of tumor cell suspension (1.45×10^4 cells/ml) were added to each well of a 96-well plate and incubated for 24 h at 37° C. in 5% CO2 in air to allow cells to adhere. Seven 2-fold drug dilutions in TCM/DMSO were performed in triplicate in separate 96-well plates and 28 μL was transferred to the wells containing tumor cells (200 μL final volume/0.1% DMSO). Plates were incubated for 72 h and cell viability was determined by adding 50 μL of warm TCM containing 5 mg/mL MTT (3-[4,5-dimethylthiazol-2-yl]-2,5-diphenyltetrazolium bromide) to each well and incubating for 1 h at 37° C. Plates were processed and the absorbances of the resulting solutions were measured by a plate reader at 570 nm. […] (GraphPad Prism version 4.00 for Windows). Studies were conducted by Taxolog, Inc., Tallahassee, Fla.
# [2] = system: HT29; assay: MTT cytotoxicity (IC50), HT29; type: cell-based; details: Homo sapiens, HT-29, 72 h, read-out: IN Vitro IC50 (nm) HT29
# Experimental: as §1
# [3] = system: A375; assay: MTT cytotoxicity (IC50), A375; type: cell-based; details: Homo sapiens, A-375
# Experimental: as §1
# [4] = system: MALME-3; assay: MTT cytotoxicity (IC50), MALME-3; type: cell-based; details: Homo sapiens, 72 h, read-out: IN Vitro IC50 (nm) Malme3
# Experimental: as §1
# [5] = system: OVCAR5; assay: MTT cytotoxicity (IC50), OVCAR5; type: cell-based; details: Homo sapiens, OVCAR-5, 72 h, read-out: IN Vitro IC50 (nm) OVCAR5
# Experimental: as §1
# [6] = system: OVCAR4; assay: MTT cytotoxicity (IC50), OVCAR4; type: cell-based; details: Homo sapiens, OVCAR-4, 72 h, read-out: IN Vitro IC50 (nm) OVCAR4
# Experimental: as §1
# [7] = system: SNB-19; assay: MTT cytotoxicity (IC50), SNB-19; type: cell-based; details: Homo sapiens, 72 h, read-out: IN Vitro IC50 (nm) SNB19
# Experimental: as §1
# [8] = system: BxPC-3 cancer cell line; assay: MTT cytotoxicity (IC50), BxPC-3 (Oncodesign); type: cell-based; details: Homo sapiens
# Experimental: BxPC-3 cancer cell line (Source ATCC) and culture medium were purchased and provided by Oncodesign (France).
# Tumor cells (5,000 cells per well) were plated in 96-well flat-bottom microtitration plates (Ref 167008, Batch 083310, Nunc, Dutscher, Brumath, France) and incubated at 37° C. for 24 hours before treatment in 100 μl of drug-free RPMI 1640 medium supplemented with 10% FBS. Tumor cell lines were incubated for 72 hours with 10 concentrations of both test substances and TXT (40 to 0.07 nM using ½ step dilutions). Experiments were repeated three times, each assay being issued from quadruplicate. Control cells were treated with the vehicle alone. At the end of treatments, the cytotoxic activity was evaluated by a MTT assay. These studies were conducted at Oncodesign, France.
# [9] = system: human BxPC-3 human pancreatic xenograft; type: in vivo; details: for optimal T/C % value: at D53; for T/C % values: from D33
# Experimental: Method: Twenty four (24) hours after a whole body irradiation with a γ-source (7.0 Gy, Co^60, INRA, Dijon, France) 20×10^6 BxPC-3 cells in 200 μl of RPMI 1640 culture medium were subcutaneously injected in the right flank of 8 female Nude rats to generate tumor material. When the tumor size reaches approximately 1,000 mm^3, the tumors were surgically excised for implantation into recipient Nude female rats. Twenty four (24) hours after a whole body irradiation (7.0 Gy, Co^60, INRA, Dijon, France), fresh BxPC-3 tumor fragments were sc implanted in the right flank of 52 Nude female rats (1 fragment/rat) at D0 using surgical pliers and skin was stitched. The antitumor activity study was started at D21 when the mean tumor volume has reached 321.6±131.2 mm^3. Before the start of treatments, 42 tumor bearing rats out of 52 grafted were randomized into 7 groups of 6 animals.
# […]. At 7 mg/kg/inj, only two treatments were performed at D21 and D42 due to severe body weight loss.
# [10] = MTT, 72 h, read-out: IN Vitro IC50 (nm) DLD1
# [11] = Resistance MDR1+, read-out: DLD1 Colon (Table 4, quantity not named; IC50 values as Table 2)
# [12] = MTT, 72 h, read-out: IN Vitro IC50 (nm) A375
# [13] = Resistance MRP9, read-out: A375 Melanoma (Table 4, quantity not named; IC50 values as Table 2)
Structure (SMILES),"IC50 [1, 10] [pM]","IC50 [1, 11] [pM]",IC50 [2] [pM],"IC50 [3, 12] [pM]","IC50 [3, 13] [pM]",IC50 [4] [pM],IC50 [5] [pM],IC50 [6] [pM],IC50 [7] [pM],also measured
CC(=O)O[C@@]12CO[C@@H]1C[C@H](O)[C@@]1(C)C(=O)[C@H](OC(=O)C3CC3)C3=C(C)[C@@H](OC(=O)[C@H](O)[C@@H](NC(=O)OC4CCC4)c4cccs4)C[C@@](O)([C@@H](OC(=O)c4ccccc4)C12)C3(C)C (stereo partly drawn) [Compound 18365],1100,1100,500,600,600,4100,300,1100,1100,"IC50 ([8]; BXPC-3, 72 h, Exp 1, MTT, 72 hours, read-out: IC50 (nM) BxPC-3): 0.79 nM; IC50 ([8]; BXPC-3, 72 h, Exp 2, MTT, 72 hours, read-out: IC50 (nM) BxPC-3): 1.07 nM; IC50 ([8]; BXPC-3, 72 h, Exp 3, MTT, 72 hours, read-out: IC50 (nM) BxPC-3): 0.99 nM; IC50 ([8]; BXPC-3, mean of 3 experiments, read-out: IC50 Mean ± SD (nM) BxPC-3): 0.95 ± 0.14 nM; wt loss ([9]; 5 mg/kg): 16.9%; tolerability of repeated IV treatments ([9]; 5 mg/kg/inj): not well tolerated; mean doubling time (DT) of tumors ([9]; 5 mg/kg/inj IV, repeated): 24.7 ± 10.4 days; time to reach volume (T to V) of 1,000 mm^3 ([9]; 5 mg/kg/inj IV, repeated): 64.3 ± 16.3 days; body weight loss ([9]; 5 mg/kg/inj IV, at D33): −16.9±6.1%; optimal T/C % value ([9]; 5 mg/kg/inj IV): 11.0%; animals with complete tumor regression ([9]; 5 mg/kg/inj IV, at D81 (final sacrifice), 6 rats per group): two; T/C % values ([9]; 5 mg/kg/inj IV): lower than 42%; tolerability of repeated IV treatments ([9]; 7 mg/kg/inj): not tolerated; rats out of six alive at the end of the study ([9]; 7 mg/kg/inj IV): one; MBWC D21-D26 ([9]; 7 mg/kg/inj IV, after the first treatment): −16.5±7.2%; optimal T/C % value ([9]; 7 mg/kg/inj IV): 13.2% and 8.9%; T/C % values ([9]; 7 mg/kg/inj IV): lower than 42%; antitumor activity ([9]; repeated IV injections at 5 and 7 mg/kg/inj): marked antitumor activity"
CCC(=O)O[C@H]1C(=O)[C@@]2(C)C([C@H](OC(=O)c3ccccc3)[C@]3(O)C[C@H](OC(=O)[C@H](O)[C@@H](NC(=O)OC4CCCC4)c4cccs4)C(C)=C1C3(C)C)[C@]1(OC(C)=O)CO[C@@H]1C[C@@H]2O (stereo partly drawn) [Compound 18926],800,800,400,500,500,1800,200,1000,1000,–

# From patent US8242166B2, “C(10) ethyl ester and C(10) cyclopropyl ester substituted taxanes” (Florida State University Research Foundation, Inc., priority 2008, dated 2012)
